Experimental data taken from patent publication US20250136614A1, “2,7-SUBSTITUTED PYRROLO[2,1-F][1,2,4]TRIAZINE COMPOUND HAVING PROTEIN KINASE INHIBITORY ACTIVITY” (Magicbullettherapeutics Co., Ltd., priority 2021, published 2025).
Residue numbers refer to the chain shown, from its start.

Columns and labels:
Ba/F3 FLT3 (ITD) = molecular target: T1, Ba/F3 FLT3 (ITD) (Homo sapiens, UniProt P36888, cells depend on it, form not given); experiment: Ba/F3 cell growth inhibition (CellTiter-Glo, 72 hours); format: cell-based; conditions: read-out: Ba/F3 GI50s (μM) FLT3 (ITD)
T1 sequence (P36888 1-993): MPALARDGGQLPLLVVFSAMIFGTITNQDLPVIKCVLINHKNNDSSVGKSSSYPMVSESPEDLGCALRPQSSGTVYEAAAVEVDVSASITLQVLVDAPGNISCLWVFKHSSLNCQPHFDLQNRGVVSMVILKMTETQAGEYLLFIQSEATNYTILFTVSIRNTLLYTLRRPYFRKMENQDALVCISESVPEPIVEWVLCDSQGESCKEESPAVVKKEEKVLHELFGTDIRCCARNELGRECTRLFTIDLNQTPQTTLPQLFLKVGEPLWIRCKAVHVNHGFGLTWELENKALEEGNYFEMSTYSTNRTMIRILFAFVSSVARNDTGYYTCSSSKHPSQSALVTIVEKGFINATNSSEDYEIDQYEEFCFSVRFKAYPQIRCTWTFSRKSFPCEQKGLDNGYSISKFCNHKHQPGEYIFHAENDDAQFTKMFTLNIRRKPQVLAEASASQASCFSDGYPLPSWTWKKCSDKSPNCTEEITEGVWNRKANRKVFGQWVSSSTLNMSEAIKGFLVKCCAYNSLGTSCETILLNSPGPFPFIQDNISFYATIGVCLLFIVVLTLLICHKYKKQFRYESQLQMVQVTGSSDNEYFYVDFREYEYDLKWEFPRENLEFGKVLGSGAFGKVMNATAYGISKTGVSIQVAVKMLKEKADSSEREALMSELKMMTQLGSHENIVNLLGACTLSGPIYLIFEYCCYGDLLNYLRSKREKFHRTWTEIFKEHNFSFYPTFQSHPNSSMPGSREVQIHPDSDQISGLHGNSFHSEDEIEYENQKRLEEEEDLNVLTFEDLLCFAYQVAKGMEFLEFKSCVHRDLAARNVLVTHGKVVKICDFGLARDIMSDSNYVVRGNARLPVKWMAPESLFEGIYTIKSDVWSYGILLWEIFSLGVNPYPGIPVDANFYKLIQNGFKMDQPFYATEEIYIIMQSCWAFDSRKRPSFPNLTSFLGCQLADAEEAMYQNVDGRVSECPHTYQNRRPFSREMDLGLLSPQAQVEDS
Experimental: (§1) Seeding 3000 cells per well in a 96-well plate. After cell stabilization, treat the cells with compounds diluted in […] at a ⅓ serial dilution and culture for 72 hours. Following treatment with CellTiter-Glo, luminescence is produced only in the presence of ATP, as luciferase degrades luciferin. Luminescence values were measured using Envision (PerkinElmer). Based on the measured luminescence values, the concentration of compounds causing cell death was calculated to determine the GI50 value.
(§2) The activity values were categorized into three levels. • A: IC50<1 μM • B: 1 μM≤IC50<10 μM, • C: IC50≥10 μM

[1] = molecular target: T2, Ba/F3 FLT3 (ITD/D835YF691L) (Homo sapiens, UniProt P36888, F691L/D835Y, cells depend on it, form not given); experiment: as above; format: cell-based; conditions: read-out: Ba/F3 GI50s (μM) FLT3 (ITD/D835YF691L)
T2 sequence (P36888 1-993 F691L/D835Y): T1 sequence (P36888 1-993) with F691L, D835Y
Experimental: as §1, §2

Row | GI50 (Ba/F3 FLT3 (ITD)) | GI50 [1] | Structure (SMILES)
1 | < 1 µM | 1 to 10 µM | O=C1CCCCCCOc2ccc(cc2)-c2ccc3cnc(nn23)Nc2ccc(cc2)N2CCN(CCCN1)CC2 [Example 23, (Z)-17-oxa-3,9-diaza-2(7,2)-pyrrolo[2,1-f][1,2,4]triazina-5(1,4)-piperazina-1,4(1,4)-dibenzenacycloheptadecaphan-10-one]
2 | < 1 µM | 1 to 10 µM | O=C1COCCOc2ccc(cc2)-c2ccc3cnc(nn23)Nc2ccc(cc2)OCCCN1 [Example 28, (Z)-5,12,15-trioxa-3,9-diaza-2(7,2)-pyrrolo[2,1-f][1,2,4]triazina-1,4(1,4)-dibenzenacyclopentadecaphan-10-one]
3 | < 1 µM | < 1 µM | O=C1CCCCOc2ccc(cc2)-c2ccc3cnc(nn23)Nc2cnn(c2)CCCN1 [Example 36, (2^1Z,4^4E)-4^1H-14-oxa-3,8-diaza-2(7,2)-pyrrolo[2,1-f][1,2,4]triazina-4(4,1)-pyrazola-1(1,4)-benzenacyclotetradecaphan-9-one]
4 | < 1 µM | < 1 µM | c1cc2ccc1Nc1ncc3ccc(n3n1)-c1ccc(cc1)OCCNCCCO2 [Example 30, (Z)-5,12-dioxa-3,9-diaza-2(7,2)-pyrrolo[2,1-f][1,2,4]triazina-1,4(1,4)-dibenzenacyclododecaphane]
5 | 1 to 10 µM | 1 to 10 µM | COc1cc2ccc1Nc1ncc3ccc(n3n1)-c1ccc(cc1)OCCOCC(=O)NCCCO2 [Example 34, (Z)-42-methoxy-5,12,15-trioxa-3,9-diaza-2(7,2)-pyrrolo[2,1-f][1,2,4]triazina-1,4(1,4)-dibenzenacyclopentadecaphan-10-one]
6 | < 1 µM | < 1 µM | CS(=O)(=O)Nc1cccc(-c2ccc3cnc(Nc4ccc(N5CCN(CCCCCCCOc6cccc7c6C(=O)N(C6CCC(=O)NC6=O)C7=O)CC5)cc4)nn23)c1 (centres unmarked) [Example 41]
7 | 1 to 10 µM | ≥ 10 µM | O=C1CCCCCCOc2ccc(cc2)-c2ccc3cnc(nn23)Nc2ccc(cc2)N2CCN1CC2 [Example 24, (Z)-13-oxa-3-aza-2(7,2)-pyrrolo[2,1-f][1,2,4]triazina-5(1,4)-piperazina-1,4(1,4)-dibenzenacyclotridecaphan-6-one]
8 | 1 to 10 µM | 1 to 10 µM | O=C1CCCCCCn2cc(cn2)-c2ccc3cnc(nn23)Nc2ccc(cc2)OCCCN1 [Example 17, (1^4Z,2^1Z)-1′H-5-oxa-3,9-diaza-2(7,2)-pyrrolo[2,1-f][1,2,4]triazina-1(4,1)-pyrazola-4(1,4)-benzenacyclohexadecaphan-10-one]
9 | 1 to 10 µM | ≥ 10 µM | Cc1ncsc1-c1ccc(CNC(=O)[C@@H]2C[C@@H](O)CN2C(=O)[C@@H](NC(=O)CCOCCOCCN2CCN(c3ccc(Nc4ncc5ccc(-c6cccc(NS(C)(=O)=O)c6)n5n4)cc3)CC2)C(C)(C)C)cc1 [Example 84, (2S,4R)-1-((S)-3,3-dimethyl-2-(3-(2-(2-(4-(4-((7-(3-(methanesulfonamido)phenyl)pyrrolo[2,1-f][1,2,4]triazin-2-yl)amino)phenyl)piperazin-1-yl)ethoxy)ethoxy)propanamido)butanoyl)-4-hydroxy-N-(4-(4-methylthiazol-5-yl)benzyl)pyrrolidin-2-carboxamide]
10 | ≥ 10 µM | ≥ 10 µM | CS(=O)(=O)Nc1cccc(-c2ccc3cnc(Nc4ccc(N5CCN(CCCCCOc6cccc7c6C(=O)N(C6CCC(=O)NC6=O)C7=O)CC5)cc4)nn23)c1 (centres unmarked) [Example 39]
11 | < 1 µM | 1 to 10 µM | O=C1CCCCOc2ccc(cc2)-c2ccc3cnc(nn23)Nc2ccc(cc2)OCCCN1 [Example 38, (Z)-5,15-dioxa-3,9-diaza-2(7,2)-pyrrolo[2,1-f][1,2,4]triazina-1,4(1,4)-dibenzenacyclopentadecaphan-10-one]
12 | < 1 µM | 1 to 10 µM | CS(=O)(=O)Nc1cccc(-c2ccc3cnc(Nc4ccc(N5CCN(CCCCCCCCCCCOc6cccc7c6C(=O)N(C6CCC(=O)NC6=O)C7=O)CC5)cc4)nn23)c1 (centres unmarked) [Example 42]
13 | < 1 µM | ≥ 10 µM | Cc1ncsc1-c1ccc(CNC(=O)[C@@H]2C[C@@H](O)CN2C(=O)[C@@H](NC(=O)COCCN2CCN(c3ccc(Nc4ncc5ccc(-c6cccc(NS(C)(=O)=O)c6)n5n4)cc3)CC2)C(C)(C)C)cc1 [Example 83, (2S,4R)-1-((S)-3,3-dimethyl-2-(2-(2-(4-(4-((7-(3-(methanesulfonamido)phenyl)pyrrolo[2,1-f][1,2,4]triazin-2-yl)amino)phenyl)piperazin-1-yl)ethoxy)acetaamino)butanoyl)-4-hydroxy-N-(4-(4-methylthiazol-5-yl)benzyl)pyrrolidin-2-carboxamide]
14 | < 1 µM | < 1 µM | O=C1CCCCOc2ccc(cc2)-c2ccc3cnc(nn23)Nc2cnn(c2)C2CCN(CCCN1)CC2 [Example 26, (2^1Z,4^4E)-4^1H-15-oxa-3,9-diaza-2(7,2)-pyrrolo[2,1-f1][1,2,4]triazina-5(4,1)-piperidina-4(4,1)-pyrazola-1(1,4)-benzenacyclopentadecaphan-10-one]
15 | < 1 µM | < 1 µM | O=C1COCCOc2ccc(cc2)-c2ccc3cnc(nn23)Nc2cnn(c2)CCCN1 [Example 35, (2^1Z,4^4E)-4^1H-11,14-dioxa-3,8-diaza-2(7,2)-pyrrolo[2,1-f1][1,2,4]triazina-4(4,1)-pyrazola-1(1,4)-benzenacyclotetradecaphan-9-one]

Row | Structure (SMILES) | GI50 (Ba/F3 FLT3 (ITD)) | GI50 [1]
16 | CC(=O)N1CCCn2cc(cn2)Nc2ncc3ccc(n3n2)-c2ccc(cc2)OCC1 [Example 3, 1-((2^1Z,4^4E)-4^1H-11-oxa-3,8-diaza-2(7,2)-pyrrolo[2,1-f1][1,2,4]triazina-4(4,1)-pyrazola-1(1,4)-benzenacycloundecaphane-8-yl)ethan-1-one] | < 1 µM | < 1 µM
17 | CN1CCCn2cc(cn2)Nc2ncc3ccc(n3n2)-c2ccc(cc2)OCC1 [Example 2] | < 1 µM | < 1 µM
18 | CS(=O)(=O)N1CCCn2cc(cn2)Nc2ncc3ccc(n3n2)-c2ccc(cc2)OCC1 [Example 9, (2^1Z,4^4E)-8-(methylsulfonyl)-4^1H-11-oxa-3,8-diaza-2(7,2)-pyrrolo[2,1-f][1,2,4]triazina-4(4,1)-pyrazola-1(1,4)-benzenecycloundecaphane] | < 1 µM | < 1 µM
19 | COc1cccc(NC(=O)N2CCCn3cc(cn3)Nc3ncc4ccc(n4n3)-c3ccc(cc3)OCC2)c1 [Example 7, (2^1Z,4^4E)-N-(3-methoxyphenyl)-4^1H-11-oxa-3,8-diaza-2(7,2)-pyrrolo[2,1-f][1,2,4]triazina-4(4,1)-pyrazola-1(1,4)-benzenecycloundecaphane-8-carboxamide] | < 1 µM | 1 to 10 µM
